# Data taken from US11027155B2, “Method for prevention and treatment of diabetic kidney disease” (priority 2019, dated 2021).
# Entries after “also recorded” stand apart in the source; their conditions may differ.
# Key:
# [1] = Body weight and appearance monitored weekly in eNOS/db mice; format: in vivo
# Text: The present disclosure describes a new use of HA synthesis inhibitors for the treatment of Diabetic Kidney Disease. To study the effects of HA inhibitors on the development of DKD, our experiments were done by providing the test drug (4-Methylumbelliferone, 4-MU) in the food to one of the best available murine models of diabetic nephropathy, the diabetic and moderately hypertensive endothelial nitric oxide synthase/leptin receptor deficient (eNOS−/−/db/db) mice (Mohan S., et al. Laboratory Investigation. 2008, vol. 88, p. 515-528; Betz B., at al. Nephron Exp Nephrol. 2014, vol. 126, p. 191-195).
# (§1) At 9 weeks old, the double homozygous mutant eNOS/db mice were separated in two similar groups regarding sex, body weight, non-fasting plasma glucose concentrations, and consanguinity. Experimental animals were fed at libitum identical artificial diets formulated by Envigo-Teklad, containing or not 5% of 4-MU sodium salt (Sigma, cat. no. M1508) until 19 weeks of age. Both diets provided 3.5 Kcal/g and contained by weight: 17.7% of protein, 53.7% of carbohydrate, and 7.2% of fat. Diets were kept sealed under vacuum at −20° C. protected from light. Every week, the old food was removed, and animals were provided fresh food pellets.
# The weight and appearance of the animals was monitored weekly.
# [2] = tested on: renal ischemia-reperfusion injury (IRI); settings: cited from earlier work
# C-Reactive Protein = C-Reactive Protein immunoassay in serum; format: in vivo, mice; settings: 4 weeks after being fed with the special diets
# Text: as §1, with “pellets. […] C—RP is considering the gold standard marker for inflammation and the lack of differences in this protein between our experimental mice points out that 4-MU is not affecting the development of DKD by crucially changing the inflammatory responses in our diabetic animals but for other mechanism of action.” for “pellets.”
# [3] = tested on: aortic smooth muscle cell (aSMC); settings: in vitro; cited from earlier work
# HA synthesis = settings: cited from earlier work
# malignant tumor cells = settings: in vitro and animal models of liver, breast, prostate, pancreatic, and renal carcinomas; cited from earlier work
# eNOS−/−/db/db mice [4] = assay: Glomerular Filtration Rate by single bolus FITC-inulin in conscious mice; format: in vivo
# Text: The present disclosure describes a new use of HA synthesis inhibitors for the treatment of Diabetic Kidney Disease. To study the effects of HA inhibitors on the development of DKD, our experiments were done by providing the test drug (4-Methylumbelliferone, 4-MU) in the food to one of the best available murine models of diabetic nephropathy, the diabetic and moderately hypertensive endothelial nitric oxide synthase/leptin receptor deficient (eNOS−/−/db/db) mice (Mohan S., et al. Laboratory Investigation. 2008, vol. 88, p. 515-528; Betz B., at al. Nephron Exp Nephrol. 2014, vol. 126, p. 191-195). At 9 weeks old, the double homozygous mutant eNOS/db mice were separated in two similar groups regarding sex, body weight, non-fasting plasma glucose concentrations, and consanguinity. Experimental animals were fed at libitum identical artificial diets formulated by Envigo-Teklad, containing or not 5% of 4-MU sodium salt (Sigma, cat. no. M1508) until 19 weeks of age. Both diets provided 3.5 Kcal/g and contained by weight: 17.7% of protein, 53.7% of carbohydrate, and 7.2% of fat. […] In our experiments, GFR were determined before (week 8) and after 10 week of treatments (week 18) by a single bolus injection of fluorescein isothiocyanate-(FITC) labeled inulin in conscious mice (Rieg T. J Vis Exp. 2013, May 10: e50330, doi: 10.3791/50330). […]
# eNOS−/−/db/db mice [5] = assay: Comparison of kidney morphology; format: in vivo; settings: diabetic mice fed 4-MU diet vs control diet
# Text: (§2) The present disclosure describes a new use of HA synthesis inhibitors for the treatment of Diabetic Kidney Disease. To study the effects of HA inhibitors on the development of DKD, our experiments were done by providing the test drug (4-Methylumbelliferone, 4-MU) in the food to one of the best available murine models of diabetic nephropathy, the diabetic and moderately hypertensive endothelial nitric oxide synthase/leptin receptor deficient (eNOS−/−/db/db) mice (Mohan S., et al. Laboratory Investigation. 2008, vol. 88, p. 515-528; Betz B., at al. Nephron Exp Nephrol. 2014, vol. 126, p. 191-195). At 9 weeks old, the double homozygous mutant eNOS/db mice were separated in two similar groups regarding sex, body weight, non-fasting plasma glucose concentrations, and consanguinity. Experimental animals were fed at libitum identical artificial diets formulated by Envigo-Teklad, containing or not 5% of 4-MU sodium salt (Sigma, cat. no. M1508) until 19 weeks of age. Both diets provided 3.5 Kcal/g and contained by weight: 17.7% of protein, 53.7% of carbohydrate, and 7.2% of fat. Diets were kept sealed under vacuum at −20° C. protected from light. Every week, the old food was removed, and animals were provided fresh food pellets.
# plasma glucose = assay: Non-fasting plasma glucose (commercial kit EIAGLUC); format: in vivo, mice; settings: 4-MU-treated vs control, end of the experiments (18-week-old)
# Text: as §1, with “-20°” for “−20°”, “pellets. Plasma glucose levels were measured using a commercial kit ([…], Invitrogen). […] This fact remarks an important difference between our invention and the use of 4-MU to treat autoimmune diabetes.” for “pellets.”
# hyaluronan = assay: Serum hyaluronan content in 4-MU fed diabetic nephropathy mice; format: in vivo; settings: 4-MU fed animals, 5% 4-MU sodium salt in diet, after 3 weeks of treatment
# Text: as §2, with “pellets. […] We detected in 4-MU fed animals a reduction of serum hyaluronan content of about 30% after 3 weeks of treatment.” for “pellets.”
# eNOS−/−/db/db mice [6] = assay: Kidney histopathology (H&E, PAS), semi-quantitative glomerular index; format: in vivo
# Text: The present disclosure describes a new use of HA synthesis inhibitors for the treatment of Diabetic Kidney Disease. To study the effects of HA inhibitors on the development of DKD, our experiments were done by providing the test drug (4-Methylumbelliferone, 4-MU) in the food to one of the best available murine models of diabetic nephropathy, the diabetic and moderately hypertensive endothelial nitric oxide synthase/leptin receptor deficient (eNOS−/−/db/db) mice (Mohan S., et al. Laboratory Investigation. 2008, vol. 88, p. 515-528; Betz B., at al. Nephron Exp Nephrol. 2014, vol. 126, p. 191-195). At 9 weeks old, the double homozygous mutant eNOS/db mice were separated in two similar groups regarding sex, body weight, non-fasting plasma glucose concentrations, and consanguinity. Experimental animals were fed at libitum identical artificial diets formulated by Envigo-Teklad, containing or not 5% of 4-MU sodium salt (Sigma, cat. no. M1508) until 19 weeks of age. Both diets provided 3.5 Kcal/g and contained by weight: 17.7% of protein, 53.7% of carbohydrate, and 7.2% of fat. Diets were kept sealed under vacuum at −20° C. protected from light. Every week, the old food was removed, and animals were provided fresh food pellets. Finally, for histopathology analysis kidneys were collected from 4-MU-treated and control mice at the end of the experiment. Organs were fixed in 10% NB formalin for 44 hours, embedded in paraffin, and 3 urn sections were stained with Hematoxylin and Eosin (H&E) or Periodic acid—Schiff (PAS), before being examined following Zhao H J et al. (Zhao H. J., et al. J Am Soc Nephrol. 2006, vol. 17, p. 2664-2669). A semi-quantitative index was used to evaluate the degree of glomerular mesangial expansion and sclerosis. 50 glomeruli on a single section (25 from each kidney) were scored from 0 to 4, where 0 represents no lesions and 1, 2, 3, and 4 represent mesangial matrix expansion or sclerosis involving less than or equal to 25, 26-50, 51-75, or >75% of the glomerular tuft area, respectively. End stage sclerotic glomeruli (glomerulosclerosis) were counted, as well as the number of glomeruli that contained nodules, and the percentage of affected glomeruli within the 50 analyzed. Histopathology staining and analyses were done by an independent service and the specialists were blind regarding the nature of the samples.
# [7] = tested on: LPS-Induced Lung Inflammation; settings: mice; cited from earlier work
# [8] = cited from earlier work
# type 1 diabetes = settings: after the onset of autoimmune insulitis, two mice models; cited from earlier work
# diabetic patients = settings: cited from earlier work
# [9] = 4-MU-treated vs control, end of the experiment
compound,measurement,setting,value
"Cc1cc(=O)oc2cc(O)ccc12 [4-MU, 4-Methylumbelliferone]",overall health and survival,[1]; DKD animals,impacted their overall health and survival
same,body weight over time vs control diet,"[1]; eNOS/db mice, 4-MU diet from 9 to 19 weeks of age",keep their body weight for a longer period; also recorded: kept their body weight longer
same,weight loss (final weight divided by maximum reached weight) vs control,"[1]; final stages of the disease, end of the experiments",significant difference in weight loss; also recorded: control diet lost significantly more weight than the mice treated with 4-MU
same,hyaluronan content in kidneys,[2]; 4-MU treatment,can reduce
same,renal ischemia-reperfusion injury after kidney transplants,[2]; inhibition pre and post-operatively,protective
same,"C-RP values in serum, treated vs untreated",C-Reactive Protein,No significant difference; also recorded: not significant differences
same,aSMC apoptosis,[3],induced apoptosis
same,"aSMC proliferation, migration",[3],blocked
same,HA synthesis,HA synthesis,selectively inhibited
same,cytostatic / anti-metastatic effect on malignant tumor cells,malignant tumor cells,useful as cytostatic or in preventing metastasis
same,"GFR, initial (week 7-8) vs final (week 18) in treated mice",eNOS−/−/db/db mice [4]; after 10 week of treatments,No significant difference; also recorded: kept their GFR values unchanged
same,progression of DKD,eNOS−/−/db/db mice [4]; from GFR results,significantly delayed the progression of DKD
same,kidney morphology,eNOS−/−/db/db mice [5],abnormalities are less pronounced; also recorded: less advanced degree of DKD
same,non-fasting plasma glucose levels,plasma glucose,No significant difference; also recorded: did not affect
same,reduction of serum hyaluronan content,hyaluronan,about 30%
same,signs of nephritis and tubulitis,"eNOS−/−/db/db mice [6]; 4-MU-treated mice, unlike control",did not found signs
same,glomerular injury index,eNOS−/−/db/db mice [6]; [9],significant lower
same,nodular glomerulosclerosis,eNOS−/−/db/db mice [6]; [9],lower
same,degree of kidney injuries (histopathology summary),eNOS−/−/db/db mice [6]; FIG. 8,lower degree of kidney injuries
same,LPS-Induced Lung Inflammation,[7],can suppress
same,metabolism in vivo to 4-MUG and 4-MUS,[8],rapidly metabolized
same,progression to type 1 diabetes,type 1 diabetes,halted progression to type 1 diabetes
Cc1ccc([C@@H]2O[C@H](CO)[C@@H](O)[C@H](O)[C@H]2O)cc1Cc1ccc(-c2ccc(F)cc2)s1 [canagliflozin],vascular and renal effects,diabetic patients,vascular and renal protective effects
